Results published in the supplement of paper PMC10307832.

Tests used:
Test in all cases: relative viability (nuclei count vs DMSO), 5 days (fraction); higher = more cells survive
Daporinad + Decitabine = compound: O=C(/C=C/c1cccnc1)NCCCCC1CCN(C(=O)c2ccccc2)CC1 [Daporinad] + Nc1ncn([C@H]2C[C@H](O)[C@@H](CO)O2)c(=O)n1 [Decitabine] (partner 2 µM)
Method in brief: (§1)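 For relative viability, nuclei counts in treated wells were divided by those in vehicle wells. Lung cancer cell lines had been pin-tool dosed in 1536-well plates the day after seeding and cultured for 5 days, then fixed and stained in one step (final 0.05% Triton X-100, 1% formaldehyde, 1 ug/ml Hoechst) and imaged at 4×. Doses were one drug alone or a fixed anchor-drug dose plus five library-drug doses (not always all listed) in √10 steps, and values are duplicate-plate medians.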

R406 + Pemetrexed = compound: COc1cc(Nc2ncc(F)c(Nc3ccc4c(n3)NC(=O)C(C)(C)O4)n2)cc(OC)c1OC [R406] + Nc1nc2[nH]cc(CCc3ccc(C(=O)N[C@@H](CCC(=O)O)C(=O)O)cc3)c2c(=O)[nH]1 [Pemetrexed] (partner 0.2 µM)
Method in brief: as §1

Daporinad + OSI-027 = compound: O=C(/C=C/c1cccnc1)NCCCCC1CCN(C(=O)c2ccccc2)CC1 [Daporinad] + COc1cccc2cc(-c3nc([C@H]4CC[C@H](C(=O)O)CC4)n4ncnc(N)c34)[nH]c12 [OSI-027] (partner 0.5 µM)
Method in brief: as §1

Daporinad + Olaparib = compound: O=C(/C=C/c1cccnc1)NCCCCC1CCN(C(=O)c2ccccc2)CC1 [Daporinad] + O=C(c1cc(Cc2n[nH]c(=O)c3ccccc23)ccc1F)N1CCN(C(=O)C2CC2)CC1 [Olaparib] (partner 8 µM)
Method in brief: as §1

Cell Line | relative viability (Daporinad + Decitabine; first compound 0.0005 µM) | relative viability (Daporinad + Decitabine; first compound 0.001581 µM) | relative viability (Daporinad + Decitabine; first compound 0.005 µM) | relative viability (Daporinad + Decitabine; first compound 0.01581 µM) | relative viability (R406 + Pemetrexed; first compound 0.08 µM) | relative viability (R406 + Pemetrexed; first compound 0.253 µM) | relative viability (R406 + Pemetrexed; first compound 0.8 µM) | relative viability (R406 + Pemetrexed; first compound 2.53 µM) | relative viability (R406 + Pemetrexed; first compound 8 µM) | relative viability (Daporinad + OSI-027; first compound 0.0005 µM) | relative viability (Daporinad + OSI-027; first compound 0.001581 µM) | relative viability (Daporinad + OSI-027; first compound 0.005 µM) | relative viability (Daporinad + OSI-027; first compound 0.01581 µM) | relative viability (Daporinad + Olaparib; first compound 0.0005 µM) | relative viability (Daporinad + Olaparib; first compound 0.001581 µM) | relative viability (Daporinad + Olaparib; first compound 0.005 µM) | relative viability (Daporinad + Olaparib; first compound 0.01581 µM)
COR-L23 | 0.43 | 0.471 | 0.437 | 0.227 | 0.2 | 0.182 | 0.191 | 0.183 | 0.191 | 0.737 | 0.772 | 0.814 | 0.255 | 0.156 | 0.245 | 0.19 | 0.155
ABC-1 | 0.807 | 1.33 | 0.987 | 0.911 |  |  |  |  |  | 0.485 | 0.472 | 0.704 | 0.517 | 1 | 0.82 | 0.781 | 0.582
SK-MES-1 | 0.377 | 0.374 | 0.383 | 0.375 | 0.948 | 0.942 | 1.01 | 0.538 | 0.213 | 0.532 | 0.608 | 0.734 | 0.601 | 0.603 | 0.636 | 0.423 | 0.323
PC-14 | 0.189 | 0.199 | 0.23 | 0.144 | 0.139 | 0.131 | 0.135 | 0.101 | 0.042 | 0.708 | 1.04 | 0.917 | 0.604 | 0.242 | 0.194 | 0.168 | 0.087
SW 900 | 0.438 |  | 0.403 | 0.374 | 0.486 | 0.486 | 0.532 | 0.129 | 0.0856 | 0.42 | 0.475 | 0.745 | 0.463 | 0.624 |  | 0.572 | 0.375
A549 | 0.227 | 0.252 | 0.234 | 0.161 |  |  |  |  |  |  |  |  |  | 0.324 | 0.184 | 0.128 | 0.0773
A-427 | 0.54 | 0.571 | 0.506 | 0.493 | 0.947 | 1.01 | 1.05 | 0.979 | 0.787 | 0.435 | 0.471 | 0.503 | 0.31 | 0.665 | 0.713 | 0.622 | 0.571
NCI-H1792 | 0.545 | 0.65 | 0.683 | 0.406 | 0.838 | 1.07 | 1.39 | 0.0474 | 0.194 | 0.668 | 0.655 | 0.541 | 0.893 | 0.466 | 0.493 | 0.228 | 0.222
LCLC-97TM1 | 0.221 | 0.243 | 0.209 | 0.233 | 0.182 | 0.2 | 0.171 | 0.183 | 0.194 | 0.523 | 0.633 | 0.656 | 0.517 | 0.435 | 0.322 | 0.201 | 0.122
NCI-H1703 |  |  |  |  |  |  |  |  |  |  |  |  |  | 0.514 | 0.388 | 0.576 | 0.41
LCLC-103H | 0.793 | 0.692 | 0.744 | 0.774 | 0.477 | 0.462 | 0.486 | 0.499 | 0.376 | 0.499 | 0.48 | 0.493 | 0.471 | 0.877 | 0.741 | 0.697 | 0.688
